Data from patent US11040976B2, “Substrate selective inhibitors of insulin-degrading enzyme (IDE) and uses thereof” (President and Fellows of Harvard College, priority 2015, dated 2021).

What follows are compounds tested against T1, IDE, substrate glucagon (Homo sapiens, UniProt P14735) (assay: MALDI analysis of glucagon cleavage products (FIGS. 27-32)). Conditions: FIG. 27A.
T1 sequence (P14735 1-1019): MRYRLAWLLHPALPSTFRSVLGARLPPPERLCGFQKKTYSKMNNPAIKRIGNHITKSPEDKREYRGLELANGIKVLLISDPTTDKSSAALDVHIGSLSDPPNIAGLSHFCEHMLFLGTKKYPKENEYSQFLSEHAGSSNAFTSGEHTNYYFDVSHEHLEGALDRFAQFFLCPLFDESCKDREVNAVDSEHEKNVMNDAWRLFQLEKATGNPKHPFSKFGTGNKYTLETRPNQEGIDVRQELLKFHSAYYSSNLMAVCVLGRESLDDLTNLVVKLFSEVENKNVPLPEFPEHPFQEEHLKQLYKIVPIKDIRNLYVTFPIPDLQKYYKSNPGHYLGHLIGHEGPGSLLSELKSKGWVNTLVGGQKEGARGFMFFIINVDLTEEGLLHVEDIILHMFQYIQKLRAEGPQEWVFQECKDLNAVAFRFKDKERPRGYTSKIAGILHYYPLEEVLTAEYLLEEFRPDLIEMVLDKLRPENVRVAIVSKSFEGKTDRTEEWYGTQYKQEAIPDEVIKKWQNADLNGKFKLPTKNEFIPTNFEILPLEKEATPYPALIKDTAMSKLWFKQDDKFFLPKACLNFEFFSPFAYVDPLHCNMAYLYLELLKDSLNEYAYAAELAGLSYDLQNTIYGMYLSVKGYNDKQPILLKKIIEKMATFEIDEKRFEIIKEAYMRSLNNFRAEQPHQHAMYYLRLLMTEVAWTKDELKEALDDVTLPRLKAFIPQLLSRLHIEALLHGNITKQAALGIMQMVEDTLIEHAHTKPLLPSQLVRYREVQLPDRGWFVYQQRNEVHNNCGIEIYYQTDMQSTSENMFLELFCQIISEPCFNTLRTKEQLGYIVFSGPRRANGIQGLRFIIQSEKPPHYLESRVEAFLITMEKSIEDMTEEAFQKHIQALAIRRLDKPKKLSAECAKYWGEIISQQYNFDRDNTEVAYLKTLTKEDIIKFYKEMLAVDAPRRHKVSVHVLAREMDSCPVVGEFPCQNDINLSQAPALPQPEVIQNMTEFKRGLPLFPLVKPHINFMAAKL
Format: biochemical

Row | Structure (SMILES) | main glucagon cleavage site
1 | Cc1cccc(-c2ccc([C@@H]3[C@@H](CO)N4CCCCN(S(=O)(=O)c5ccccc5C(F)(F)F)C[C@@H]34)cc2)c1C [JP-17] | no change in the main glucagon cleavage site
2 | Cc1cccc(-c2ccc([C@H]3C4CN(S(=O)(=O)c5ccccc5C(F)(F)F)CCCCN4[C@@H]3CF)cc2)c1C (some centres unmarked) [JP-18] | no change in the main glucagon cleavage site

What follows are compounds tested against T2, Human N-His6-IDE42-1019 (E. coli expressed) (Homo sapiens, UniProt P14735) (assay: Fluorescence anisotropy high-throughput screening assay (displacement of probe FL-6b)). Conditions: final compound concentration 20 μM (6bK control 1 μM); values without asterisk.
T2 construct: Human N-His6-IDE42-1019 (E. coli expressed); made in house; host or cells: E. coli (Rosetta 2 (DE3) pLysS, plasmid pTrcHis-A)
T2 sequence (P14735 42-1019): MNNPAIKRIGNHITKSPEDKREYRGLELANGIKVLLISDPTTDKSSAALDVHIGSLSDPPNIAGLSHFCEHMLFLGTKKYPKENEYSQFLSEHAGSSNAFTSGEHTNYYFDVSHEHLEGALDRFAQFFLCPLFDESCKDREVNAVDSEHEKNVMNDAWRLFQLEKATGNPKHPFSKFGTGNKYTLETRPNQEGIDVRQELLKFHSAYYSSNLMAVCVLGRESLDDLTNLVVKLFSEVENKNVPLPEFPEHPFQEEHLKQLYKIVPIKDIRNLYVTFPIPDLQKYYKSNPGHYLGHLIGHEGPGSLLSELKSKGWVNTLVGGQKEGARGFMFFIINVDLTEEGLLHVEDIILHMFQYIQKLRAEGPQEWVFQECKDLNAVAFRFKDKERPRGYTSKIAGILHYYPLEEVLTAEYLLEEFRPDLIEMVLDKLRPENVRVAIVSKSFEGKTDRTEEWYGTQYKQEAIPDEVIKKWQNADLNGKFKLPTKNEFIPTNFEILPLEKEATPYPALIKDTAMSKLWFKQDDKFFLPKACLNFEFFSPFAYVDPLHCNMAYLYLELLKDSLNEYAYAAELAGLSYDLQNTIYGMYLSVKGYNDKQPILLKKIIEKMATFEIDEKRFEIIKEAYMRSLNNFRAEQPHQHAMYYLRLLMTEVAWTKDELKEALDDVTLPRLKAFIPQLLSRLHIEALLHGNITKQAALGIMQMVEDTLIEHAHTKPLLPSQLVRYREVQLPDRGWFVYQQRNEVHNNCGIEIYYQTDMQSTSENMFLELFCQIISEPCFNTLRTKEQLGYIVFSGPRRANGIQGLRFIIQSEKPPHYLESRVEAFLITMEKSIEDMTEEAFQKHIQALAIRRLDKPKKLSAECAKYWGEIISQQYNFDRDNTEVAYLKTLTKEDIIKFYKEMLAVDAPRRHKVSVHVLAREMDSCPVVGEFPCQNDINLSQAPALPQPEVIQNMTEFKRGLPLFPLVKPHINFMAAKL
Format: binding
Method: The fluorescence anisotropy screening method and probe FL-6b are described in PCT application PCT/US2014/064322, incorporated herein by reference.
Human N-His6-IDE42-1019 (E. coli expressed) was mixed with fluorescein-labeled macrocycle FL-6b:
[drawing 802] in 50 mM Tris buffer pH 8.0, with 1 M NaCl, at 25° C. Optimum signal was obtained using a mixture of […] probe FL-6b and 0.5 μM IDE. The “diversity-oriented (DOS) synthesis informer set” compound plates were pinned onto 384-well plates containing the enzyme-probe mixture (50 μL/well). The azetidine screen was pre-printed on 384-well plates and the enzyme-probe mixture was added (50 μL/well). The final compound concentration was 20 μM. IDE inhibitor 6bK was used as a positive control at a final concentration of 1 μM. After 30 minutes of equilibration, the increase in fluorescence anisotropy was recorded using an EnVision spectrophotometer (excitation 492 nm, emission 523 nm). The fluorescence anisotropy was independently measured twice for each screened compound. The Z-scores for each pair of measurements are plotted in FIG. 1A (DOS informer set) and FIG. 1B (azetidines), and average Z-scores are listed for exemplary compounds in Table E1.
Z-scores were calculated based on the raw anisotropy measured for each well according to Eq. 1, wherein x is the raw anisotropy value of the well, μ is the mean of the anisotropy of the negative control wells (DMSO) for the plate, and σ is the standard deviation in anisotropy of the negative control wells (DMSO) for the plate.

Row | Structure (SMILES) | Average Z-score (Fluorescence anisotropy)
3 | Cc1ccccc1-c1ccc([C@@H]2[C@@H](CO)N3CCCCN(S(C)(=O)=O)C[C@@H]23)cc1 [compound 591] | −17.90
4 | Cc1cccc(-c2ccc([C@H]3[C@@H](CO)N4CCCCN(C(=O)c5ccncc5)C[C@H]34)cc2)c1 [compound 836] | −18.28
5 | Cc1cccc(-c2ccc([C@@H]3[C@@H](CO)N4CCCCN(CC5CC5)C[C@@H]34)cc2)c1 [compound 837] | −2.88
6 | Cc1cccc(-c2ccc([C@@H]3[C@H]4CN(C(=O)c5cccnc5)CC(=O)N4[C@H]3CO)cc2)c1 [compound 838] | −17.68

The next lines start with the values.

Row | Average Z-score (Fluorescence anisotropy) | Structure (SMILES)
7 | −20.82 | Cc1ccccc1-c1ccc([C@H]2[C@H](CO)N3C(=O)CN(C(=O)NC4CCCC4)C[C@@H]23)cc1 [compound 504]
8 | −22.36 | CCCNC(=O)N1CC(=O)N2[C@H](CO)[C@@H](c3ccc(-c4cccc(C)c4)cc3)[C@@H]2C1 [compound 779]
9 | −17.31 | Cc1ccccc1-c1ccc([C@H]2[C@@H](CO)N3C(=O)CN(C(=O)Cc4ccccn4)C[C@@H]23)cc1 [compound 805]

These compounds were tested against T3, recombinant human IDE42-1019 (Homo sapiens, UniProt P14735) (assay: Protease assay with fluorogenic peptide substrate Mca-[…](Dnp)-OH). Conditions: fluorogenic peptide Mca-RPPGFSAFK(Dnp)-OH; apparent IC50 for compounds with submaximal inhibition; read-out: IC50 (μM) Proteolysis.
T3 construct: recombinant human IDE42-1019 (R&D Systems); purchased R&D Systems
T3 sequence (P14735 42-1019): T2 sequence (P14735 42-1019)
Format: biochemical

Row | Structure (SMILES) | IC50 [µM]
10 | Cc1cccc(-c2ccc([C@@H]3[C@@H](CO)N4CCCCN(S(=O)(=O)c5ccccc5C(F)(F)F)C[C@@H]34)cc2)c1C [JP-17] | 0.001
11 | Cc1ccccc1-c1ccc([C@@H]2[C@@H](CO)N3CCCCN(S(C)(=O)=O)C[C@@H]23)cc1 [compound 591] | 1.5
12 | Cc1cccc(-c2ccc([C@@H]3[C@@H](CO)N4CCCCN(CC5CC5)C[C@@H]34)cc2)c1 [compound 837] | > 100

Second part, the compound after the results:

Row | IC50 [µM] | Structure (SMILES)
13 | 0.8 | Cc1ccccc1-c1ccc([C@H]2[C@H](CO)N3C(=O)CN(C(=O)NC4CCCC4)C[C@@H]23)cc1 [compound 504]
14 | 0.8 | CCCNC(=O)N1CC(=O)N2[C@H](CO)[C@@H](c3ccc(-c4cccc(C)c4)cc3)[C@@H]2C1 [compound 779]
15 | 2.5 | Cc1ccccc1-c1ccc([C@H]2[C@@H](CO)N3C(=O)CN(C(=O)Cc4ccccn4)C[C@@H]23)cc1 [compound 805]

Same assay, conditions: fluorogenic peptide Mca-RPPGFSAFK(Dnp)-OH; plateau at high inhibitor concentration; read-out: Imax (%) Proteolysis (inhibition maximum)

Row | Structure (SMILES) | Emax [%]
16 | Cc1ccccc1-c1ccc([C@@H]2[C@@H](CO)N3CCCCN(S(C)(=O)=O)C[C@@H]23)cc1 [compound 591] | 40
17 | Cc1cccc(-c2ccc([C@H]3[C@@H](CO)N4CCCCN(C(=O)c5ccncc5)C[C@H]34)cc2)c1 [compound 836] | 60
18 | Cc1cccc(-c2ccc([C@@H]3[C@H]4CN(C(=O)c5cccnc5)CC(=O)N4[C@H]3CO)cc2)c1 [compound 838] | 80

Now from value to compound:

Row | Emax [%] | Structure (SMILES)
19 | 60 | CCCNC(=O)N1CC(=O)N2[C@H](CO)[C@@H](c3ccc(-c4cccc(C)c4)cc3)[C@@H]2C1 [compound 779]
20 | 70 | Cc1ccccc1-c1ccc([C@H]2[C@@H](CO)N3C(=O)CN(C(=O)Cc4ccccn4)C[C@@H]23)cc1 [compound 805]

The compounds below were run against T4, IDE (R&D), substrate glucagon (Homo sapiens, UniProt P14735) (assay: HTRF assay for IDE-mediated degradation of glucagon). Conditions: compounds 67 μM, 0° C. for 10 minutes, versus DMSO alone, FIG. 5.
T4 construct: recombinant human IDE42-1019 (R&D Systems); purchased R&D
T4 sequence (P14735 42-1019): T2 sequence (P14735 42-1019)
Format: biochemical
Method: A solution of 0.05 μg/mL IDE (R&D) in “Diluent #5” (CisBio, 24 μL) was transferred to a 200 μL tube strip, and combined with 1 μL of each inhibitor (10 mM in DMSO, or as a 3-fold dilution series). […] This procedure was optimized to result in ˜75% degradation of glucagon. The reaction was terminated by 1 μL of inhibitor Ii1 (5 μM) and chilled on ice. The remaining glucagon was quantified using 10 μL of the quenched enzymatic reaction using the sensitive-range protocol Homogeneous Time-Resolved FRET Glucagon assay (CisBio® 62GLCPEF, see FIG. 3) in 20 μL total volume according to the manufacturer's instructions (384 well-plate Greiner 784904 non-binding). Fluorescence was measured using a Tecan M1000Pro plate reader (excitation=340 nm, emission=665 and 620 nm, lag time=60 μs) according the assay manufacturer's recommendations. Blank wells and glucagon standard curve were included in the assay.
FIG. 4 compares the determined endpoint for insulin degradation with of glucagon degradation for a DMSO control, 6bK at 10 μM, and exemplary compounds of the invention at concentrations of 67 μM.
The HTRF endpoint assay for insulin and glucagon was performed over a range of concentrations for several potential inhibitors and for 6bK.

Row | initial rates of glucagon cleavage | Structure (SMILES)
21 | enhanced | Cc1ccccc1-c1ccc([C@H]2[C@H](CO)N3C(=O)CN(C(=O)NC4CCCC4)C[C@@H]23)cc1 [compound 504]
22 | enhanced | Cc1ccccc1-c1ccc([C@@H]2[C@@H](CO)N3CCCCN(S(C)(=O)=O)C[C@@H]23)cc1 [compound 591]
23 | reduced | CCCNC(=O)N1CC(=O)N2[C@H](CO)[C@@H](c3ccc(-c4cccc(C)c4)cc3)[C@@H]2C1 [compound 779]
